Data reported in patent US20260242391A1 (priority 2023, published 2026).

Experiments:
HL-60 = HL-60 differentiation potency; assay type: cell-based; details: Homo sapiens
in vitro = details: human

EC50 (HL-60) | IC50 (in vitro) | Structure (SMILES)
> 20 µM | > 20 µM | C[C@H]1[C@H](N2CCC(C(=O)NC3CS(=O)(=O)C3)CC2)O[C@@H]2O[C@@]3(C)CC[C@H]4[C@H](C)CC[C@@H]1[C@@]24OO3 [Compound 65, N-(1,1-dioxidothietan-3-yl)-1-((3R,5aS,6R,8aS, 9R,10R,12R, 12aR)-3,6,9-trimethyldeca-hydro-12H-3,12-epoxy[1,2]dioxepino[4,3-i]isochromen-10-yl)piperidine-4-carboxamide]
0.865 µM | > 20 µM | Cc1cc(C(=O)O)ccc1CO[C@H]1O[C@@H]2O[C@@]3(C)CC[C@H]4[C@H](C)CC[C@@H]([C@H]1C)[C@@]24OO3 [Compound 74, 3-methyl-4-((((3R,5aS,6R,8aS, 9R,10S,12R, 12aR)-3,6,9-trimethyldeca-hydro-12H-3,12-epoxy[1,2]dioxepino[4,3-i]isochromen-10-yl)oxy)methyl) benzoic acid]
1.57 µM | > 20 µM | C[C@H]1[C@@H](OCC(=O)N2C[C@H]3[C@@H]([C@H]2C(=O)O)C3(C)C)O[C@@H]2O[C@@]3(C)CC[C@H]4[C@H](C)CC[C@@H]1[C@@]24OO3 [Compound 151, (1R,2S,5S)-6,6-dimethyl-3-(2-(((3R,5aS,6R,8aS, 9R,10S,12R, 12aR)-3,6,9-trimethyldeca-hydro-12H-3,12-epoxy[1,2]dioxepino[4,3-i]isochromen-10-yl)oxy)acetyl)-3-azabicyclo[3.1.0] hexane-2-carboxylic acid]
> 20 µM | > 20 µM | C[C@H]1[C@H](N2CCCCC2)O[C@@H]2O[C@@]3(C)CC[C@H]4[C@H](C)CC[C@@H]1[C@@]24OO3 [Compound 63, 1-((3R,5aS,6R,8aS, 9R,10R,12R, 12aR)-3,6,9-trimethyldeca-hydro-12H-3,12-epoxy[1,2]dioxepino[4,3-i]isochromen-10-yl)piperidine]
0.0244 µM | 8 µM | C[C@H]1[C@@H](Oc2ccc(C(=O)N[C@H]3CC[C@@H](C(=O)O)C3)cc2)O[C@@H]2O[C@@]3(C)CC[C@H]4[C@H](C)CC[C@@H]1[C@@]24OO3 [Compound 134, (1R,3S)-3-(4-(((3R,5aS,6R,8aS, 9R,10S,12R, 12aR)-3,6,9-trimethyldeca-hydro-12H-3,12-epoxy[1,2]dioxepino[4,3-i]isochromen-10-yl)oxy)benzamido)cyclo-pentane-1-carboxylic acid]
> 20 µM | > 20 µM | C[C@H]1[C@H](N2CC[C@@H](C(=O)O)C2)O[C@@H]2O[C@@]3(C)CC[C@H]4[C@H](C)CC[C@@H]1[C@@]24OO3 [Compound 69, (R)-1-((3R,5aS,6R,8aS, 9R,10R,12R, 12aR)-3,6,9-trimethyldeca-hydro-12H-3,12-epoxy[1,2]dioxepino[4,3-i]isochromen-10-yl)pyrrolidine-3-carboxylic acid]
16.4 µM | > 20 µM | C[C@H]1[C@H](CCNS(C)(=O)=O)O[C@@H]2O[C@@]3(C)CC[C@H]4[C@H](C)CC[C@@H]1[C@@]24OO3 [Compound 62, N-(2-((3R,5aS,6R,8aS, 9R,10S,12R, 12aR)-3,6,9-trimethyldeca-hydro-12H-3,12-epoxy[1,2]dioxepino[4,3-i]isochromen-10-yl)ethyl) methane-sulfonamide]
0.11 µM | > 20 µM | C[C@H]1[C@@H](OCc2ccc(C(=O)O)cc2Cl)O[C@@H]2O[C@@]3(C)CC[C@H]4[C@H](C)CC[C@@H]1[C@@]24OO3 [Compound 119, 3-chloro-4-((((3R,5aS,6R, 8aS,9R,10S,12R, 12aR)-3,6,9-trimethyldeca-hydro-12H-3,12-epoxy[1,2]dioxepino[4,3-i]isochromen-10-yl)oxy)methyl) benzoic acid]
> 20 µM | > 20 µM | C[C@H]1[C@@H](OC[C@H]2C[C@@H](C(=O)O)C[C@@H](C(=O)O)C2)O[C@@H]2O[C@@]3(C)CC[C@H]4[C@H](C)CC[C@@H]1[C@@]24OO3 [Compound 147, (1R,3S,5r)-5-((((3R,5aS,6R,8aS, 9R,10S,12R, 12aR)-3,6,9-trimethyldeca-hydro-12H-3,12-epoxy[1,2]dioxepino[4,3-i]isochromen-10-yl)oxy)methyl) cyclohexane-1,3-dicarboxylic acid]
0.273 µM | > 20 µM | C[C@H]1[C@@H](OCC(C(=O)O)c2ccccc2)O[C@@H]2O[C@@]3(C)CC[C@H]4[C@H](C)CC[C@@H]1[C@@]24OO3 (stereo partly drawn) [Compound 172, 2-phenyl-3-(((3R,5aS,6R,8aS, 9R,10S,12R, 12aR)-3,6,9-trimethyldeca-hydro-12H-3,12-epoxy[1,2]dioxepino[4,3-i]isochromen-10-yl)oxy) propanic acid]
> 20 µM | > 20 µM | C[C@H]1[C@H](OCC(=O)N2CC[C@@H](C(=O)O)C2)O[C@@H]2O[C@@]3(C)CC[C@H]4[C@H](C)CC[C@@H]1[C@@]24OO3 [Compound 163, (R)-1-(2-(((3R,5aS,6R,8aS, 9R,10R,12R, 12aR)-3,6,9-trimethyldeca-hydro-12H-3,12-epoxy[1,2]dioxepino[4,3-i]isochromen-10-yl)oxy)acetyl) pyrrolidine-3-carboxylic acid]
> 20 µM | > 20 µM | CNC(=O)N1CCN([C@@H]2O[C@@H]3O[C@@]4(C)CC[C@H]5[C@H](C)CC[C@@H]([C@H]2C)[C@@]35OO4)CC1 [Compound 67, N-methyl-4-((3R,5aS,6R,8aS, 9R,10R,12R, 12aR)-3,6,9-trimethyldeca-hydro-12H-3,12-epoxy[1,2]dioxepino[4,3-i]isochromen-10-yl)piperazine-1-carboxamide]
6.87 µM | > 20 µM | C[C@H]1[C@@H](OCC(=O)N2CCC(C(=O)O)CC2)O[C@@H]2O[C@@]3(C)CC[C@H]4[C@H](C)CC[C@@H]1[C@@]24OO3 [Compound 148, 1-(2-(((3R,5aS,6R,8aS, 9R,10S,12R, 12aR)-3,6,9-trimethyldeca-hydro-12H-3,12-epoxy[1,2]dioxepino[4,3-i]isochromen-10-yl)oxy)acetyl) piperidine-4-carboxylic acid]

Continued, compound first:

Structure (SMILES) | EC50 (HL-60) | IC50 (in vitro)
C[C@H]1[C@@H](OCc2ccnc(C(=O)O)c2)O[C@@H]2O[C@@]3(C)CC[C@H]4[C@H](C)CC[C@@H]1[C@@]24OO3 [Compound 15, 4-((((3R,5aS,6R, 8aS,9R,10S,12R, 12aR)-3,6,9-trimethyldeca-hydro-12H-3,12-epoxy[1,2]dioxepino[4,3-i]isochromen-10-yl)oxy)methyl) picolinic acid] | 0.0931 µM | 2.55 µM
C[C@H]1[C@H](NCc2cnn(C)c2)O[C@@H]2O[C@@]3(C)CC[C@H]4[C@H](C)CC[C@@H]1[C@@]24OO3 [Compound 46, (3R,5aS,6R,8aS, 9R,10R,12R, 12aR)-3,6,9-trimethyl-N-((1-methyl-1H-pyrazol-4-yl)methyl)decahydro-12H-3,12-epoxy[1,2] dioxepino[4,3-i] isochromen-10-amine] | 1.46 µM | 4.38 µM
C[C@H]1[C@@H](Oc2cccc(CC(=O)O)c2)O[C@@H]2O[C@@]3(C)CC[C@H]4[C@H](C)CC[C@@H]1[C@@]24OO3 [Compound 20, 2-(3-(((3R,5aS,6R, 8aS,9R,10S,12R, 12aR)-3,6,9-trimethyldeca-hydro-12H-3,12-epoxy[1,2]dioxepino[4,3-i]isochromen-10-yl)oxy)phenyl) acetic acid] | 0.117 µM | 8.33 µM
C[C@H]1[C@@H](OC[C@H]2CC[C@H](C(=O)O)CC2)O[C@@H]2O[C@@]3(C)CC[C@H]4[C@H](C)CC[C@@H]1[C@@]24OO3 [Compound 43, (1S,4r)-4-((((3R,5aS,6R, 8aS,9R,10S,12R, 12aR)-3,6,9-trimethyldeca-hydro-12H-3,12-epoxy[1,2]dioxepino[4,3-i]isochromen-10-yl)oxy)methyl) cyclohexane-1-carboxylic acid] | 0.892 µM | > 20 µM
C[C@H]1[C@H](OCc2ccc3c(c2)OC(F)(F)O3)O[C@@H]2O[C@@]3(C)CC[C@H]4[C@H](C)CC[C@@H]1[C@@]24OO3 [Compound 6, (3R,5aS,6R,8aS, 9R,10R,12R, 12aR)-10-((2,2-difluorobenzo [d][1,3]dioxol-5-yl)methoxy)-3,6,9-trimethyldeca-hydro-12H-3,12-epoxy[1,2] dioxepino[4,3-i] isochromene] | 0.0532 µM | 0.05 µM
C[C@H]1[C@@H](Oc2ccc(F)c(CC(=O)O)c2)O[C@@H]2O[C@@]3(C)CC[C@H]4[C@H](C)CC[C@@H]1[C@@]24OO3 [Compound 27, 2-(2-fluoro-5-(((3R,5aS,6R, 8aS,9R,10S,12R, 12aR)-3,6,9-trimethyldeca-hydro-12H-3,12-epoxy[1,2]dioxepino[4,3-i]isochromen-10-yl)oxy)phenyl) acetic acid] | 0.239 µM | > 20 µM
C[C@H]1[C@H](OC[C@H]2CC[C@H](C(=O)O)CC2)O[C@@H]2O[C@@]3(C)CC[C@H]4[C@H](C)CC[C@@H]1[C@@]24OO3 [Compound 40, (1R,4r)-4-((((3R,5aS,6R,8aS, 9R,10R,12R, 12aR)-3,6,9-trimethyldeca-hydro-12H-3,12-epoxy[1,2]dioxepino[4,3-i]isochromen-10-yl)oxy)methyl) cyclohexane-1-carboxylic acid] | 0.68 µM | > 20 µM
C[C@H]1[C@@H](OCc2cc(F)c(C(=O)O)c(F)c2)O[C@@H]2O[C@@]3(C)CC[C@H]4[C@H](C)CC[C@@H]1[C@@]24OO3 [Compound 29, 2,6-difluoro-4-((((3R,5aS,6R, 8aS,9R,10S,12R, 12aR)-3,6,9-trimethyldeca-hydro-12H-3,12-epoxy[1,2]dioxepino[4,3-i]isochromen-10-yl)oxy)methyl) benzoic acid] | 0.283 µM | > 20 µM
C[C@H]1[C@@H](OCc2ccc(C(=O)O)c(F)c2F)O[C@@H]2O[C@@]3(C)CC[C@H]4[C@H](C)CC[C@@H]1[C@@]24OO3 [Compound 31, 2,3-difluoro-4-((((3R,5aS,6R, 8aS,9R,10S,12R, 12aR)-3,6,9-trimethyldeca-hydro-12H-3,12-epoxy[1,2]dioxepino[4,3-i]isochromen-10-yl)oxy)methyl) benzoic acid] | 0.324 µM | > 20 µM
C[C@H]1[C@H](NC2CS(=O)(=O)C2)O[C@@H]2O[C@@]3(C)CC[C@H]4[C@H](C)CC[C@@H]1[C@@]24OO3 [Compound 52, 3-(((3R,5aS,6R,8aS, 9R,10R,12R, 12aR)-3,6,9-trimethyldeca-hydro-12H-3,12-epoxy[1,2]dioxepino[4,3-i]isochromen-10-yl)amino) thietane 1,1-dioxide] | 2.45 µM | 3.55 µM
